In assay [1] the target is T1, full length N-terminally FLAG-tagged PARP1 (Homo sapiens, UniProt P09874). The assay is described as follows: PARP1 biochemical DELFIA assay (auto-PARylation). Also noted: recombinant full length human N-terminally FLAG-tagged PARP1.
Assay [2] concerns the target T2, N-terminally FLAG-tagged PARP2 (amino acids 1-583) (Homo sapiens, UniProt Q9UGN5).
T2 construct: N-terminally FLAG-tagged PARP2 (amino acids 1-583)
As to the kind of experiment: PARP2 probe displacement HTRF assay. To be noted: binned Kd. It is filed as binding. As to the method: Data analysis was performed identical as for PARP1.

For a further assay, the target named is T3, PARP1 (Homo sapiens, UniProt P09874).
T3 construct: host or cells: HEK293
As to the kind of experiment: NanoBRET cellular target occupancy assay, PARP1. Type of assay: cell-based. To be noted: for Kd: HEK293 cells transiently transfected with PARP1-NanoLuc fusion, tracer 11 nM, 2 hours at 37° C., Kd by Cheng-Prussoff; for Selectivity: NanoBRET, PARP1 over PARP2, Kd (PARP2)/Kd (PARP1).

The next assay addresses T4, PARP2 (Homo sapiens, UniProt Q9UGN5).
T4 construct: host or cells: HEK293
As to the kind of experiment: NanoBRET cellular target occupancy assay, PARP2. To be noted: HEK293 cells transiently transfected with PARP2-NanoLuc fusion; tracer 2 nM; 2 hours at 37° C.; Kd by Cheng-Prussoff. Type of assay: cell-based. The text has this: NanoBRET Cellular Target Occupancy Assay

For assay [3], the target named is T1, full length N-terminally FLAG-tagged PARP1. As to the kind of experiment: PARP1 probe displacement HTRF assay. To be noted: for Selectivity: PARP1 over PARP2, ratio Kd (PARP2)/Kd (PARP1); for Kd: binned Kd.
Setting [4] is: binned IC50, biochemical auto-PARylation assay.
[5] abbreviates: read-out: PARP1 HTRF, probe displacement HTRF.
Where [6] appears, read: binned IC50, PARP1 biochemical DELFIA assay.
[7] abbreviates: read-out: PARP1 HTRF, PARP1 probe displacement HTRF.
[8] abbreviates: PARP1 HTRF, probe displacement HTRF.

Read-outs that look alike come from different tables or passages of the source.

T1 sequence (P09874 whole entry, the tested form may be a part): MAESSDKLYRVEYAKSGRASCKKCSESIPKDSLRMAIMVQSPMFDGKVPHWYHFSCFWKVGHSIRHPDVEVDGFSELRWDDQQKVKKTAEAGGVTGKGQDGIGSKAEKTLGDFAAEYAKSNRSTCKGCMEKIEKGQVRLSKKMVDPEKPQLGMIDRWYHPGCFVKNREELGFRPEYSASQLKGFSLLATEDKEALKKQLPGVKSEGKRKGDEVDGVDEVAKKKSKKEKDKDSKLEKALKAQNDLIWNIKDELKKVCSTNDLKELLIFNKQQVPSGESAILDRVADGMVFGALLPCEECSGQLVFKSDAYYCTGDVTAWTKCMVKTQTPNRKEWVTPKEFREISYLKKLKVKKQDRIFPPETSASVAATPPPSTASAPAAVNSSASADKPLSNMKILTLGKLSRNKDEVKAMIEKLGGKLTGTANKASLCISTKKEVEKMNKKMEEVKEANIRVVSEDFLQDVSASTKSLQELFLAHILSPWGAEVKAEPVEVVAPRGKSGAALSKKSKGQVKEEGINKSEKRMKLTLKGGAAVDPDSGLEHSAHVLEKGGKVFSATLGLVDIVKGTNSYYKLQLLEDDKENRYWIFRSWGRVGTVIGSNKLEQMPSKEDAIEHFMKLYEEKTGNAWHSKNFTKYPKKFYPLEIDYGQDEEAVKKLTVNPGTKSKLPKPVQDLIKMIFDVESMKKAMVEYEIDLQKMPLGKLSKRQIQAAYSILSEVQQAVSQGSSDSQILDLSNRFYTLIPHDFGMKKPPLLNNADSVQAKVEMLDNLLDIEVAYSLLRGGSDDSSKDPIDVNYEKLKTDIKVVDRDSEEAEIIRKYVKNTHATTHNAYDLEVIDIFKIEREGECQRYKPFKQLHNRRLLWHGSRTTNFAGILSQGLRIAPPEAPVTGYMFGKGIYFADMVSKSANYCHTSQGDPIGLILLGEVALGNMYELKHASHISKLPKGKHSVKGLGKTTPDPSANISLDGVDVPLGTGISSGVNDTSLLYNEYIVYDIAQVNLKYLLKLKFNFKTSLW
T3 sequence (P09874 whole entry): as the sequence (P09874 whole entry, the tested form may be a part) above
T4 sequence (Q9UGN5 whole entry): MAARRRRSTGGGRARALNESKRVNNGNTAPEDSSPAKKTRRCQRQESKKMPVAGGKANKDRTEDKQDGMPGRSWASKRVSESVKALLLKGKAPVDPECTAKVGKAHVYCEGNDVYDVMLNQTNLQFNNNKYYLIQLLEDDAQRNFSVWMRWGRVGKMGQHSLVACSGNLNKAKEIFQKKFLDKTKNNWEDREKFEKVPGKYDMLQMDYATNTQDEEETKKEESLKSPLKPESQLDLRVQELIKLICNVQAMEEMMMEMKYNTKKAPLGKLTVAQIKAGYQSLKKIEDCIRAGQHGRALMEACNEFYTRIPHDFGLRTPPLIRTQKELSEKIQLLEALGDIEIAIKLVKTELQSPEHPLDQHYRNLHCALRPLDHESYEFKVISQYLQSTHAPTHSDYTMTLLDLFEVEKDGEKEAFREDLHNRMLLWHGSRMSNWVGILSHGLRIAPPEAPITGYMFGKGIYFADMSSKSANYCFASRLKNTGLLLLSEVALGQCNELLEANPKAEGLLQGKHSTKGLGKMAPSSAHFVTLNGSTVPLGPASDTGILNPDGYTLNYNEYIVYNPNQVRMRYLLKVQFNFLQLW
T2 sequence (Q9UGN5 whole entry, the tested form may be a part): as the sequence (Q9UGN5 whole entry) above

As to `CCc1ccc(C2CCN(C3CCN(c4ccc(C(=O)NC)nc4Cl)CC3)C2)[nH]c1=O` (single isomer, unassigned) [Compound 239b], the IC50 in assay [1] (setting [4]) was less than 10 nM. Besides, the Kd in assay [2] (probe displacement HTRF) was 1000 to 10000 nM; at PARP1, less than 10 nM; on PARP2, 1000 to 10000 nM; in assay [3] (setting [5]), less than 10 nM. The Selectivity entry (on PARP1; in assay [3] (probe displacement HTRF)) was “+++ (+++ indicate a value of at least 100)” in each case.

Turning to `CCc1cc(Cl)c(C2CCN(C3CCN(c4ccc(C(=O)NC)nc4)CC3)C2)[nH]c1=O` (racemic) [Compound 255rac], in assay [1] (setting [4]), the IC50 was less than 10 nM. The Kd in assay [2] (probe displacement HTRF) was 100 to 1000 nM; on PARP1, less than 10 nM; on PARP2, 1000 to 10000 nM; in assay [3] (setting [5]), less than 10 nM. The Selectivity entry was “+++ (+++ indicate a value of at least 100)” on PARP1 and “++ (++ indicates a value of 50 to less than 100)” in assay [3] (probe displacement HTRF).

As to `CNC(=O)c1ccc(N2CCC(N3CCC(c4cc5c(Cl)cccc5c(=O)[nH]4)C3)CC2)cn1` (single isomer, unassigned) [Compound 137b], the IC50 in assay [1] (setting [6]) is less than 10 nM. For the same molecule, the Kd was 10 to 100 nM in assay [2] (PARP2 probe displacement HTRF), less than 10 nM at PARP1, 100 to 1000 nM at PARP2 and less than 10 nM in assay [3] (setting [7]). Further, the Selectivity entry on PARP1 is recorded as “+++ (+++ indicate a value of at least 100)”; in assay [3] (probe displacement HTRF) it was “+ (+ indicates a value of 10 to less than 50)”.

Regarding `CNC(=O)c1ccc(N2CCC(N3CC4(c5nc6cccc(F)c6c(=O)[nH]5)CC3C4)CC2)c(F)n1` [Compound 228], the IC50 in assay [1] (setting [4]) was less than 10 nM. The Kd in assay [2] (probe displacement HTRF) was 1000 to 10000 nM; at PARP1, less than 10 nM; on PARP2 it was more than 10000 nM; in assay [3] (setting [8]), less than 10 nM. Further, the Selectivity entry (on PARP1; in assay [3] (probe displacement HTRF)) was “+++ (+++ indicate a value of at least 100)” in each case.

Consider `CNC(=O)c1ccc(N2CCC(N3CCC(c4nc5[nH]cc(C(F)(F)F)c5c(=O)[nH]4)C3)CC2)cn1` (racemic) [Compound 150rac], for which, in assay [1] (setting [6]), the IC50 was less than 10 nM. The Kd was less than 10 nM in assay [2] (PARP2 probe displacement HTRF), 10 to 100 nM at PARP1, 100 to 1000 nM on PARP2 and less than 10 nM in assay [3] (setting [7]). Also, the Selectivity entry on PARP1 is listed as “+ (+ indicates a value of 10 to less than 50)”; in assay [3] (probe displacement HTRF), “− (− indicates a value of less than 10)”.

For `CNC(=O)c1ccc(N2CCC(N3CC4(c5nc6c(c(=O)[nH]5)CCC6)CC3C4)CC2)c(F)n1` [Compound 302], in assay [1] (setting [4]), the IC50 was less than 10 nM. For the same molecule, the Kd is more than 10000 nM in assay [2] (probe displacement HTRF), 10 to 100 nM on PARP1, more than 10000 nM on PARP2 and less than 10 nM in assay [3] (setting [8]). For the same molecule, the Selectivity result (on PARP1; in assay [3] (probe displacement HTRF)) was “+++ (+++ indicate a value of at least 100)” each time.

`CNC(=O)c1ccc(N2CCC(N3CCC(c4cc5cccc(F)c5c(=O)[nH]4)C3)CC2)c(F)n1` (single isomer, unassigned) [Compound 184b, 6-fluoro-5-[4-[3-(8-fluoro-1-oxo-2H-isoquinolin-3-yl)pyrrolidin-1-yl]piperidin-1-yl]-N-methylpyridine-2-carboxamide]: the half-maximal inhibitory concentration (IC50) in assay [1] (setting [6]) is less than 10 nM. Also, the Kd in assay [2] (PARP2 probe displacement HTRF) was 100 to 1000 nM; at PARP1 it was less than 10 nM; at PARP2 it was 100 to 1000 nM; in assay [3] (setting [7]), less than 10 nM. The Selectivity entry (on PARP1; in assay [3] (probe displacement HTRF)) was “+++ (+++ indicate a value of at least 100)” throughout.

As for `CNC(=O)c1ccc(N2CCC(N3CC4(c5nc6ccccc6c(=O)[nH]5)CC3C4)CC2)c(F)n1` [Compound 260], the concentration for half-maximal inhibition (IC50) in assay [1] (setting [4]) was less than 10 nM. The Kd in assay [2] (probe displacement HTRF) is 1000 to 10000 nM; on PARP1 it was less than 10 nM; on PARP2, more than 10000 nM; in assay [3] (setting [8]), less than 10 nM. For the same molecule, the Selectivity result (on PARP1; in assay [3] (probe displacement HTRF)) was “+++ (+++ indicate a value of at least 100)” each time.
